From the supplement of paper PMC10627819

How the values were obtained:
B. subtilis 168 [1] = experiment: fitness (endpoint OD595 vs no drug) (fraction); higher = more growth
Outline: (§1)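 Plates with 384 wells were inoculated at OD595 0.01 using 30 µl of TSB, LB Lennox or CY, or 55 µl for S. pneumoniae. Incubation was at 37 °C, with OD595 measured every 30 min for 14 h. Fitness is the stationary-phase transition optical density over the robust mean of no-drug control wells, after first-reading background subtraction; it is capped at 1.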

S. pneumoniae D39V [2] = experiment: as above
Outline: as §1

S. aureus Newman [3] = experiment: as above
Outline: as §1

S. aureus DSM 20231 [4] = experiment: as above
Outline: as §1

B. subtilis 168 [5] = experiment: Bliss interaction score (quartile over a dose matrix) (fitness difference); higher = more antagonism (negative = synergy)
Outline: (§2)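 The Bliss score takes observed fitness and subtracts the expected fitness, calculated as a product of single-drug fitness values. Those single-drug values were inferred from the combination data. Fitness is OD595 at entry into stationary phase divided by the plate's robust no-drug mean, capped at 1, and the score is summarised by quartiles across technical, biological and donor/recipient replicates.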

S. pneumoniae D39V [6] = experiment: as above
Outline: as §2

S. aureus Newman [7] = experiment: as above
Outline: as §2

S. aureus DSM 20231 [8] = experiment: as above
Outline: as §2
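For Bliss interaction score (quartile over a dose matrix) in this document: first quartile when negative (synergy) and third quartile when positive (antagonism).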

CO/N=C(\C(=O)N[C@@H]1C(=O)N2C(C(=O)O)=C(COC(C)=O)CS[C@H]12)c1csc(N)n1 [Cefotaxime] + Cc1onc(-c2ccccc2)c1C(=O)N[C@@H]1C(=O)N2[C@@H]1SC(C)(C)[C@@H]2C(=O)O [Oxacillin]
one replicate
Details	fitness
B. subtilis 168 [1], first compound 0.00775 µg/mL, partner 0.0078 µg/mL	0.82
B. subtilis 168 [1], first compound 0.00775 µg/mL, partner 0.0155 µg/mL	0.789
B. subtilis 168 [1], first compound 0.00775 µg/mL, partner 0.031 µg/mL	0.741
B. subtilis 168 [1], first compound 0.0155 µg/mL, partner 0.0078 µg/mL	0.644
B. subtilis 168 [1], first compound 0.0155 µg/mL, partner 0.0155 µg/mL	0.664
B. subtilis 168 [1], first compound 0.0155 µg/mL, partner 0.031 µg/mL	0.548
B. subtilis 168 [1], first compound 0.031 µg/mL, partner 0.0078 µg/mL	0.482
B. subtilis 168 [1], first compound 0.031 µg/mL, partner 0.0155 µg/mL	0.537
B. subtilis 168 [1], first compound 0.031 µg/mL, partner 0.031 µg/mL	0.395
B. subtilis 168 [1], first compound 0.0625 µg/mL, partner 0.075 µg/mL	0.0512
B. subtilis 168 [1], first compound 0.0625 µg/mL, partner 0.15 µg/mL	0.0585
B. subtilis 168 [1], first compound 0.0625 µg/mL, partner 0.3 µg/mL	0.0527
B. subtilis 168 [1], first compound 0.125 µg/mL, partner 0.075 µg/mL	0.0627
B. subtilis 168 [1], first compound 0.125 µg/mL, partner 0.15 µg/mL	0.0636
B. subtilis 168 [1], first compound 0.125 µg/mL, partner 0.3 µg/mL	0.0489
B. subtilis 168 [1], first compound 0.25 µg/mL, partner 0.075 µg/mL	0.0575
B. subtilis 168 [1], first compound 0.25 µg/mL, partner 0.15 µg/mL	0.0677
B. subtilis 168 [1], first compound 0.25 µg/mL, partner 0.3 µg/mL	0.0596
S. aureus Newman [3], first compound 0.039 µg/mL, partner 0.0156 µg/mL	0.689
S. aureus Newman [3], first compound 0.039 µg/mL, partner 0.0312 µg/mL	0.662
S. aureus Newman [3], first compound 0.039 µg/mL, partner 0.0625 µg/mL	0.629
S. aureus Newman [3], first compound 0.312 µg/mL, partner 0.0156 µg/mL	0.317
S. aureus Newman [3], first compound 0.312 µg/mL, partner 0.0312 µg/mL	0.224
S. aureus Newman [3], first compound 0.312 µg/mL, partner 0.0625 µg/mL	0.181

Details	fitness
B. subtilis 168 [1], first compound 0.5 µg/mL, partner 0.002 µg/mL	0.272
B. subtilis 168 [1], first compound 0.5 µg/mL, partner 0.008 µg/mL	0.249
B. subtilis 168 [1], first compound 1 µg/mL, partner 0.002 µg/mL	0.158
B. subtilis 168 [1], first compound 1 µg/mL, partner 0.004 µg/mL	0.118
B. subtilis 168 [1], first compound 1 µg/mL, partner 0.008 µg/mL	0.133
B. subtilis 168 [1], first compound 2 µg/mL, partner 0.002 µg/mL	0.115
B. subtilis 168 [1], first compound 2 µg/mL, partner 0.004 µg/mL	0.114
B. subtilis 168 [1], first compound 2 µg/mL, partner 0.008 µg/mL	0.113
S. aureus DSM 20231 [4], first compound 0.039 µg/mL, partner 0.0156 µg/mL	0.696
S. aureus DSM 20231 [4], first compound 0.039 µg/mL, partner 0.0312 µg/mL	0.624
S. aureus DSM 20231 [4], first compound 0.039 µg/mL, partner 0.0625 µg/mL	0.632
S. aureus DSM 20231 [4], first compound 0.078 µg/mL, partner 0.0156 µg/mL	0.681
S. aureus DSM 20231 [4], first compound 0.078 µg/mL, partner 0.0312 µg/mL	0.655
S. aureus DSM 20231 [4], first compound 0.078 µg/mL, partner 0.0625 µg/mL	0.639
S. aureus DSM 20231 [4], first compound 0.156 µg/mL, partner 0.0156 µg/mL	0.599
S. aureus DSM 20231 [4], first compound 0.156 µg/mL, partner 0.0312 µg/mL	0.623
S. aureus DSM 20231 [4], first compound 0.156 µg/mL, partner 0.0625 µg/mL	0.655
S. aureus DSM 20231 [4], first compound 0.312 µg/mL, partner 0.0156 µg/mL	0.593
S. aureus DSM 20231 [4], first compound 0.312 µg/mL, partner 0.0312 µg/mL	0.594
S. aureus DSM 20231 [4], first compound 0.312 µg/mL, partner 0.0625 µg/mL	0.478
S. aureus Newman [3], first compound 0.078 µg/mL, partner 0.0156 µg/mL	0.745
S. aureus Newman [3], first compound 0.078 µg/mL, partner 0.0312 µg/mL	0.627
S. aureus Newman [3], first compound 0.078 µg/mL, partner 0.0625 µg/mL	0.531
S. aureus Newman [3], first compound 0.156 µg/mL, partner 0.0156 µg/mL	0.6
S. aureus Newman [3], first compound 0.156 µg/mL, partner 0.0312 µg/mL	0.555
S. aureus Newman [3], first compound 0.156 µg/mL, partner 0.0625 µg/mL	0.38
S. aureus Newman [3], first compound 0.625 µg/mL, partner 0.0156 µg/mL	0.0697
S. aureus Newman [3], first compound 0.625 µg/mL, partner 0.0312 µg/mL	0.0379
S. aureus Newman [3], first compound 0.625 µg/mL, partner 0.0625 µg/mL	0.0206
S. aureus Newman [3], first compound 1.25 µg/mL, partner 0.0156 µg/mL	0.0601
S. aureus Newman [3], first compound 1.25 µg/mL, partner 0.0312 µg/mL	0.0503
S. aureus Newman [3], first compound 1.25 µg/mL, partner 0.0625 µg/mL	0.0594
S. aureus Newman [3], first compound 2.5 µg/mL, partner 0.0156 µg/mL	0.0599
S. aureus Newman [3], first compound 2.5 µg/mL, partner 0.0312 µg/mL	0.0551
S. aureus Newman [3], first compound 2.5 µg/mL, partner 0.0625 µg/mL	0.0574
S. pneumoniae D39V [2], first compound 0.0018 µg/mL, partner 0.005 µg/mL	0.999
S. pneumoniae D39V [2], first compound 0.0018 µg/mL, partner 0.01 µg/mL	0.983
S. pneumoniae D39V [2], first compound 0.0018 µg/mL, partner 0.02 µg/mL	0.937
S. pneumoniae D39V [2], first compound 0.0018 µg/mL, partner 0.04 µg/mL	0.345
S. pneumoniae D39V [2], first compound 0.0035 µg/mL, partner 0.005 µg/mL	≥ 1
S. pneumoniae D39V [2], first compound 0.0035 µg/mL, partner 0.01 µg/mL	0.979
S. pneumoniae D39V [2], first compound 0.0035 µg/mL, partner 0.02 µg/mL	0.874
S. pneumoniae D39V [2], first compound 0.0035 µg/mL, partner 0.04 µg/mL	0.189
S. pneumoniae D39V [2], first compound 0.007 µg/mL, partner 0.005 µg/mL	0.979
S. pneumoniae D39V [2], first compound 0.007 µg/mL, partner 0.04 µg/mL	0.0612

Details	Bliss interaction score
B. subtilis 168 [5]	0.0466
S. aureus DSM 20231 [8]	0.0453
S. aureus Newman [7]	0.0747
S. pneumoniae D39V [6]	-0.116
